Test results from the CheMixHub ionic liquid set.

Assay: xn = mol fraction of the nth substance listed

OCCO + CC[n+]1ccn(C)c1.O=C([O-])C(F)(F)F
100 kPa, x1 = 1
Settings | viscosity [mPa·s]
293.15 K | 20.8
298.15 K | 16.8
303.15 K | 13.8
313.15 K | 9.52

OC1OC[C@@H](O)[C@H](O)[C@H]1O (stereo not given in full) + O + CCCCCCCCn1cc[n+](C)c1.[Br-]
298.15 K, 101 kPa
Settings | viscosity [mPa·s]
x1 = 0.0001923, x3 = 0.001831 | 0.966
x1 = 0.0001932, x3 = 0.003598 | 1.027
x1 = 0.0002045, x3 = 0.00713 | 1.178
x1 = 0.0002136, x3 = 0.005442 | 1.104
x1 = 0.0003697, x3 = 0.00183 | 0.97
x1 = 0.0003826, x3 = 0.003597 | 1.03
x1 = 0.0004154, x3 = 0.005441 | 1.11
x1 = 0.00056, x3 = 0.00183 | 0.976
x1 = 0.0005832, x3 = 0.003596 | 1.035
x1 = 0.000592, x3 = 0.00544 | 1.115
x1 = 0.0006052, x3 = 0.007127 | 1.189
x1 = 0.0007465, x3 = 0.00183 | 0.981
x1 = 0.0007705, x3 = 0.003595 | 1.04
x1 = 0.0007917, x3 = 0.005439 | 1.121
x1 = 0.0008153, x3 = 0.007126 | 1.195
x1 = 0.0009407, x3 = 0.003595 | 1.044
x1 = 0.0009495, x3 = 0.001829 | 0.985
x1 = 0.0009701, x3 = 0.005438 | 1.127
x1 = 0.0009957, x3 = 0.007124 | 1.202
x1 = 0.001112, x3 = 0.001829 | 0.989
x1 = 0.001145, x3 = 0.003594 | 1.051
x1 = 0.00115, x3 = 0.005437 | 1.13
x1 = 0.001216, x3 = 0.007123 | 1.207
x1 = 0.001289, x3 = 0.001829 | 0.993
x1 = 0.001332, x3 = 0.003593 | 1.054
x1 = 0.00134, x3 = 0.005436 | 1.135
x1 = 0.00141, x3 = 0.007121 | 1.213
x1 = 0.001459, x3 = 0.001828 | 0.996
x1 = 0.00151, x3 = 0.003593 | 1.059
x1 = 0.00153, x3 = 0.005435 | 1.14
x1 = 0.001602, x3 = 0.00712 | 1.219
x1 = 0.001647, x3 = 0.001828 | 1
x1 = 0.001708, x3 = 0.003592 | 1.065
x1 = 0.001741, x3 = 0.005433 | 1.147
x1 = 0.001813, x3 = 0.007119 | 1.224

CCCCCO + CCCCCC[n+]1ccn(C)c1.[Cl-]
Settings | viscosity [mPa·s]
303.15 K, 101 kPa, x1 = 1 | 3.03

CCCC[n+]1ccc(C)cc1.[Br-] + CO/N=C(\C(=O)N[C@@H]1C(=O)N2C(C(=O)[O-])=C(CSc3nc(=O)c(=O)[n-]n3C)CS[C@H]12)c1csc(N)n1.[Na+].[Na+] + O
viscosity [mPa·s], 100 kPa
Settings | 288.15 K | 293.15 K | 298.15 K | 303.15 K | 308.15 K
x2 = 0, x1 = 0.0007903 | 1.165 | 1.024 | 0.907 | 0.813 | 0.734
x2 = 0, x1 = 0.001191 | 1.176 | 1.037 | 0.919 | 0.824 | 0.745
x2 = 0, x1 = 0.001595 | 1.195 | 1.044 | 0.926 | 0.833 | 0.75
x2 = 0.0008523, x1 = 0.0007896 | 1.293 | 1.134 | 0.998 | 0.892 | 0.805
x2 = 0.0008581, x1 = 0.00119 | 1.321 | 1.176 | 1.024 | 0.918 | 0.827
x2 = 0.001389, x1 = 0.0007891 | 1.39 | 1.219 | 1.077 | 0.965 | 0.863
x2 = 0.001401, x1 = 0.001593 | 1.423 | 1.241 | 1.103 | 0.989 | 0.884
x2 = 0.001946, x1 = 0.0007887 | 1.504 | 1.31 | 1.157 | 1.035 | 0.931
x2 = 0.001971, x1 = 0.001189 | 1.511 | 1.342 | 1.183 | 1.055 | 0.948
x2 = 0.001975, x1 = 0.001592 | 1.545 | 1.355 | 1.192 | 1.065 | 0.954
x2 = 0.002543, x1 = 0.0007882 | 1.632 | 1.427 | 1.256 | 1.12 | 1.007
x2 = 0.002544, x1 = 0.001591 | 1.673 | 1.464 | 1.295 | 1.152 | 1.031
x2 = 0.003109, x1 = 0.001187 | 1.806 | 1.567 | 1.379 | 1.224 | 1.096
x2 = 0.003138, x1 = 0.0007878 | 1.767 | 1.543 | 1.364 | 1.213 | 1.086
x2 = 0.003151, x1 = 0.00159 | 1.823 | 1.589 | 1.399 | 1.244 | 1.113
x2 = 0.003944, x1 = 0.001186 | 2.024 | 1.764 | 1.544 | 1.369 | 1.222
x2 = 0.003953, x1 = 0.0007871 | 1.993 | 1.729 | 1.519 | 1.351 | 1.208
x2 = 0.003986, x1 = 0.001589 | 2.106 | 1.787 | 1.577 | 1.395 | 1.245
x2 = 0.004811, x1 = 0.001588 | 2.346 | 2.022 | 1.772 | 1.562 | 1.389
x2 = 0.004834, x1 = 0.0007864 | 2.266 | 1.959 | 1.718 | 1.524 | 1.35
x2 = 0.004855, x1 = 0.001185 | 2.32 | 2.01 | 1.757 | 1.552 | 1.38
x2 = 0.005536, x1 = 0.0007859 | 2.52 | 2.173 | 1.904 | 1.68 | 1.492
x2 = 0.005537, x1 = 0.001184 | 2.56 | 2.232 | 1.937 | 1.706 | 1.514
x2 = 0.005566, x1 = 0.001586 | 2.63 | 2.267 | 1.983 | 1.738 | 1.544

CCCCCC[N+](C)(C)C.[Br-] + O
298.15 K, 101 kPa
Settings | electrical conductivity [S/m] | viscosity [mPa·s]
x1 = 0.000888 | – | 0.9148
x1 = 0.001394 | – | 0.9261
x1 = 0.002133 | – | 0.9439
x1 = 0.003331 | – | 0.9727
x1 = 0.004173 | – | 0.9962
x1 = 0.004485 | 1.84 | –
x1 = 0.005042 | – | 1.019
x1 = 0.005996 | – | 1.043
x1 = 0.006874 | – | 1.066
x1 = 0.007743 | – | 1.088
x1 = 0.008657 | – | 1.113
x1 = 0.0096 | – | 1.138
x1 = 0.01046 | – | 1.162
x1 = 0.01139 | – | 1.189
x1 = 0.01245 | – | 1.222

CCCCCO + CCCC[n+]1ccn(C)c1.O=S(=O)([N-]S(=O)(=O)C(F)(F)F)C(F)(F)F
298 K, 100 kPa
Settings | electrical conductivity [S/m] | viscosity [mPa·s]
x2 = 0 | – | 3.486
x2 = 0.5988 | – | 20.14
x2 = 0.6 | 0.5605 | –
x2 = 0.6994 | – | 25.03
x2 = 0.7 | 0.526 | –
x2 = 0.8 | 0.487 | –
x2 = 0.8014 | – | 31.59
x2 = 0.9 | 0.4445 | –
x2 = 0.9023 | – | 39

CCCCCO + CCCC[n+]1ccn(C)c1.N#C[S-]
Settings | viscosity [mPa·s]
298.15 K, 101 kPa, x1 = 1 | 3.37

O=S(=O)([N-]S(=O)(=O)C(F)(F)F)C(F)(F)F.[Li+] + CCCC[N+]1(C)CCCC1.O=S(=O)([N-]S(=O)(=O)C(F)(F)F)C(F)(F)F
100 kPa, x1 = 0.24
Settings | electrical conductivity [S/m]
277.9 K | 0.007
283.4 K | 0.016
298 K | 0.062
346.4 K | 0.429

O=S(=O)([N-]S(=O)(=O)C(F)(F)F)C(F)(F)F.[Li+] + COC(=O)OC + CCC(=O)OC
Settings | viscosity [mPa·s]
298.15 K, 100 kPa, x1 = 0.333, x2 = 0.667 | 53.7
